Where a name gives a salt, the structure may show the parent alone. Read-outs that look alike come from different tables or passages of the source.
What was measured:
[1] = tested on: Human colon cancer strain Colo320D.M.; test: Combined use of E7070 and 5-FU in human colon cancer Colo320D.M. xenograft model; conditions: alone or simultaneous; for Toxicity Dead/Treated: E7070 30 mg/kg/day day 1-5, 5-FU 60 mg/kg/day day 1, 5, 9
Excerpt: (§1) Cancer Chemother Pharmacol. 1992;30(1):25-30; (ii)Enhancement of vincristine cytotoxicity in drug-resistant cells by simultaneous treatment with onconase, an antitumor ribonuclease. J Natl Cancer Inst. 1996 June 5;88(11):747-53; (iii)Effects of growth hormone and testosterone on cortical bone formation and bone density in aged orchiectomized rats. Bone. 1999 May;24(5):491-7).

[2] = tested on: Human colon cancer strain HCT15; conditions: alone or in combination; for Toxicity Dead/Treated: E7070 30 mg/kg/day QDx5, CPT-11 75 mg/kg/day Q4Dx3; for Tx4 (days) mean ± S.D.: HCT15 xenograft, nude mice, iv, E7070 30 mg/kg/day QDx5 (day 1-5), CPT-11 75 mg/kg/day Q4Dx3 (day 1, 5, 9)
Excerpt: as §1

[3] = tested on: Human colon cancer strain SW620; conditions: E7070 25 mg/kg/day day 1-5, CPT-11 62.5 mg/kg/day day 1, 5, 9, alone or simultaneous
Excerpt: as §1

[4] = tested on: Human non-small cell lung cancer LU-99; conditions: alone or simultaneous
Excerpt: as §1

[5] = tested on: Human colon cancer strain HCT15; test: Combined use of E7070 and MMC in human colon cancer HCT15 xenograft model; conditions: alone or in combination; for Toxicity Dead/Treated: E7070 25 mg/kg/day QDx5, MMC 4.19 mg/kg/day QDx1; for Tx4 (days) mean ± S.D.: HCT15 xenograft, nude mice, iv, E7070 25 mg/kg/day QDx5 (day 1-5; combination line prints 30 mg/kg/day), MMC 4.19 mg/kg/day QDx1 (day 1)
Excerpt: as §1

[6] = used in combination with E7070; model and data not given
[7] = tested on: Human colon cancer strain HCT15; test: Combined use of E7070 and Gemcitabine in human colon cancer HCT15 xenograft model; type: in vivo, nude mouse; conditions: used in combination with E7070; no data given
Excerpt: as §1

[8] = E7070 25 mg/kg/day day 1-5, CDDP 7.5 mg/kg/day day 1

Compound: O=c1[nH]cc(F)c(=O)[nH]1 [5-FU, 5-fluoro-2,4-(1H,3H)-pyrimidinedione]
- Tx4 (days) mean ± S.D. ([1]; Colo320D.M. xenograft, nude mice, iv, E7070 30 mg/kg/day QDx5 (day 1-5), 5-FU 60 mg/kg/day Q4Dx3 (day 1, 5, 9)): 10.0 ± 0.7 days
- Toxicity Dead/Treated [1]: 0/6

Compound: CCc1c2c(nc3ccc(OC(=O)N4CCC(N5CCCCC5)CC4)cc13)-c1cc3c(c(=O)n1C2)COC(=O)[C@]3(O)CC [CPT-11, [1,4′-Bipiperidine]-1′-carboxylic acid (S)-4,11-diethyl-3,4,12,14-tetrahydro-4-hydroxy-3,14-dioxo-1H-pyrano-[3′,4′:6,7]-indolizino[1,2-b]quinolin-9-yl ester Hydrochloride trihydrate]
- Toxicity Dead/Treated [2]: 0/6
- Tx4 (days) mean ± S.D. [2]: 17.8 ± 1.0 days
- Toxicity Dead/Treated [3]: 0/6

Compound: NS(=O)(=O)c1ccc(S(=O)(=O)Nc2cccc3c(Cl)c[nH]c23)cc1 [E7070, N-(3-chloro-1H-indol-7-yl)-4-sulfamoylbenzenesulfonamide]
- Toxicity Dead/Treated [1]: 0/6
- Toxicity Dead/Treated [2]: 0/6
- Tx4 (days) mean ± S.D. [2]: 18.7 ± 2.0 days
- Toxicity Dead/Treated [4, 8]: 0/6
- mRTV mean ± S.D. ([4]; minimum relative tumor volume, E7070 25 mg/kg/day day 1-5, CDDP 7.5 mg/kg/day day 1): 0.75 ± 0.16
- Toxicity Dead/Treated [3]: 0/6
- mRTV mean ± S.D. ([3]; minimum relative tumor volume, day of minimum in parentheses in the cell): 0.76 ± 0.42(12)
- Toxicity Dead/Treated [5]: 0/6
- Tx4 (days) mean ± S.D. [5]: 12.7 ± 2.2 days

Compound: CO[C@@]12[C@H](COC(N)=O)C3=C(C(=O)C(C)=C(N)C3=O)N1C[C@@H]1N[C@@H]12 [MMC, [1aS-(1aα,8β,8aα,8bα)]-6-amino-8-[[(aminocarbonyl)oxy]methyl]1,1a,2,8,8a,8b-hexahydro-8a-methoxy-5-methylazirino[2′,3′:3,4]pyrrolo[1,2-a]indole-4,7-dione]
- Toxicity Dead/Treated [5]: 0/6
- Tx4 (days) mean ± S.D. [5]: 16.2 ± 3.4 days

Compound: COc1cccc2c1C(=O)c1c(O)c3c(c(O)c1C2=O)C[C@@](O)(C(=O)CO)C[C@@H]3O[C@H]1C[C@H](N)[C@H](O)[C@H](C)O1 [doxorubicin, 10-[(3-amino-2,3,6-trideoxy-α-L-lyxo-hexopyranosyl)oxy]-7,8,9,10-tetrahydro-6,8,11-trihydroxy-8-(hydroxyacetyl)-1-methoxy-(8S-cis)-5,12-naphthacenedione]
- synergistic effect, antitumor activity [6]: excellent antitumor activity

Compound: Cl.Nc1ccn([C@@H]2O[C@H](CO)[C@@H](O)C2(F)F)c(=O)n1 [gemcitabine hydrochloride, 2′-deoxy-2′,2′-difluoro-cytidine hydrochloride]
- synergistic effect, antitumor activity [7]: excellent antitumor activity

Compound: cis-diamminedichloroplatinum [CDDP]
- Toxicity Dead/Treated [4, 8]: 0/6
- Tx4 (days) mean ± S.D. ([4]; LU-99 xenograft, nude mice, iv, E7070 25 mg/kg/day QDx5 (day 1-5), CDDP 7.5 mg/kg/day QDx1 (day 1)): 10.7 ± 0.5 days
- Toxicity mRBW mean ([4]; minimum relative body weight, day of minimum in parentheses in the cell, E7070 25 mg/kg/day day 1-5, CDDP 7.5 mg/kg/day day 1): 0.95(5)

— patent US20040002505A1, “Medicinal compositions for cocominant use as anticancer agent” (priority 2000, published 2004)
